Where two headings read alike, the source gives them in different places.

The results in this text go back to patent US8871679B2, “Fungicidal mixtures comprising substituted 1-methylpyrazol-4-ylcarboxanilides” (BASF SE, priority 2008, dated 2014).

Type in all cases: cell-based
One assay has as its system Alternaria solani. The assay is described as follows: Microtiter test, activity against Alternaria solani (Use Example 4). The following applies: 7 days.
A further assay concerns Septoria tritici. Briefly: Microtiter test, activity against leaf blotch on wheat caused by Septoria tritici (Use Example 3). The following applies: for inhibition of growth at 16 ppm / inhibition of growth at 63 ppm / inhibition of growth at 4 ppm: Zymoseptoria tritici, 168 h, read-out: Observed efficacy.
The test system of another assay is Pyricularia oryzae.
Another assay deals with Fusarium culmorum. The assay is described as follows: Microtiter test, activity against Fusarium culmorum (Use Example 7). The conditions noted are these: compound alone, 7 days.
For the next assay, the system named is Leptosphaerium nodorum. Briefly: Microtiter test, activity against Leptospharium nodorum (Use Example 6). The following applies: compound alone, 7 days.
Another assay deals with Colletotrichum truncatum. The assay is described as follows: Microtiter test, activity against Colletotrichum truncatum (Use Example 5). The conditions noted are these: compound alone, 7 days.
Where [1] appears, read: Alternaria solani, 168 h, 63 ppm, compound alone, read-out: Observed efficacy.
Where [2] appears, read: 0.016 ppm, compound alone, day 7.
[3] abbreviates: 0.25 ppm, compound alone, day 7.
Setting [4] is: Alternaria solani, 168 h, read-out: Observed efficacy.

On to `Cc1c(COC(=O)[C@@H]2[C@H](/C=C(\Cl)C(F)(F)F)C2(C)C)cccc1-c1ccccc1` (racemic) [Bifenthrin, bifenthrin], for which the inhibition of growth at 63 ppm in the assay on Alternaria solani (setting [1]) came to 1%.
With `CC1(C)[C@H](C(=O)O[C@H](C#N)c2cccc(Oc3ccccc3)c2)[C@@H]1/C=C(\Cl)C(F)(F)F` (racemic) [lambda-Cyalothrin, lambda-cyhalothrin], in the assay with Septoria tritici (16 ppm, compound alone, day 7), the inhibition of growth at 16 ppm was 10%. In the assay with Septoria tritici (63 ppm, compound alone, day 7), the inhibition of growth at 63 ppm stood at 29%.
For the compound `Cn1cc(C(=O)Nc2ccccc2C2CC2C2CC2)c(C(F)F)n1` (single isomer, unassigned) [Sedaxane (trans diastereoisomer), N-(trans-2-bicycloprop-2-ylphenyl)-3-difluoromethyl-1-methyl-1H-pyrazole-4-carboxamide], the Observed efficacy in the assay with Pyricularia oryzae (setting [2]) is reported as 1%; with Alternaria solani (0.063 ppm, compound alone), 0%; with Alternaria solani (0.25 ppm, compound alone) it was 20%; in the assay with Fusarium culmorum (0.25 ppm), 2%; in the assay on Leptosphaerium nodorum (0.25 ppm), 17%; in the assay with Colletotrichum truncatum (0.25 ppm), 3%. Moreover, the Observed efficacy in the assay with Septoria tritici (setting [3]) was 57%.
For `COP(=O)(NC(C)=O)SC` (centres unmarked) [Acephate, acephate], in the assay on Alternaria solani (setting [4]), the inhibition of growth at 1 ppm came to 3%. For the same compound, the inhibition of growth at 4 ppm with Septoria tritici was determined as 2%.
On to `CNC(=O)O/N=C/C(C)(C)SC` [Aldicarb, aldicarb], for which, in the assay on Septoria tritici, the inhibition of growth at 16 ppm was found to be 7%.
Turning to `Cn1cc(C(=O)Nc2ccc(F)cc2-c2ccc(Cl)c(Cl)c2)c(C(F)F)n1` [Bixafen, bixafen], the Observed efficacy in the assay with Pyricularia oryzae (0.063 ppm, compound alone, day 7) came to 6%; with Pyricularia oryzae (setting [3]), 6%; in the assay with Alternaria solani, 0%; with Leptosphaerium nodorum (0.25 ppm), 16%; in the assay on Colletotrichum truncatum (0.25 ppm), 6%; with Septoria tritici, 48%.
For the compound `CCOCn1c(-c2ccc(Cl)cc2)c(C#N)c(Br)c1C(F)(F)F` [Chlorfenapyr, chlorfenapyr], the Observed efficacy is recorded as 17% with Pyricularia oryzae (4 ppm, compound alone, day 7); 38% in the assay with Pyricularia oryzae (63 ppm, compound alone, day 7); 8% with Leptosphaerium nodorum (63 ppm). The inhibition of growth at 16 ppm with Septoria tritici (16 ppm, compound alone, day 7) is 8%.
With `CC1(C)[C@H](C(=O)O[C@H](C#N)c2cccc(Oc3ccccc3)c2)[C@@H]1C=C(Br)Br` [Deltamethrin, deltamethrin], the Observed efficacy with Pyricularia oryzae (4 ppm, compound alone, day 7) was 0%. Also, in the assay with Alternaria solani (setting [4]), the inhibition of growth at 1 ppm was found to be 0%, the inhibition of growth at 4 ppm was 5% and the inhibition of growth at 16 ppm is 0%. Further, in the assay on Septoria tritici, the inhibition of growth at 16 ppm stood at 0% and the inhibition of growth at 63 ppm was 3%.
Take `CNC(=O)CSP(=S)(OC)OC` [Dimethoate, dimethoate]: in the assay on Septoria tritici, the inhibition of growth at 4 ppm turned out to be 2%.
`O=S1OCC2C(CO1)C1(Cl)C(Cl)=C(Cl)C2(Cl)C1(Cl)Cl` (centres unmarked) [Endosulfan, endosulfan]: the Observed efficacy is reported as 22% in the assay with Pyricularia oryzae (16 ppm, compound alone, day 7); 73% in the assay with Pyricularia oryzae (63 ppm, compound alone, day 7); 5% in the assay with Leptosphaerium nodorum (63 ppm); 8% with Colletotrichum truncatum (63 ppm). Also, the inhibition of growth at 16 ppm was determined as 13% in the assay with Alternaria solani (setting [4]) and 3% in the assay on Septoria tritici. In addition, the inhibition of growth at 63 ppm in the assay with Septoria tritici came out at 26%.
For `CC(C)([CH2][Sn]([CH2]C(C)(C)c1ccccc1)([CH2]C(C)(C)c1ccccc1)[O][Sn]([CH2]C(C)(C)c1ccccc1)([CH2]C(C)(C)c1ccccc1)[CH2]C(C)(C)c1ccccc1)c1ccccc1` [Fenbutadin-oxyd, fenbutatin oxide], the Observed efficacy in the assay with Pyricularia oryzae was found to be 39%.
Take `Cc1cc(C(F)(C(F)(F)F)C(F)(F)F)ccc1NC(=O)c1cccc(I)c1C(=O)NC(C)(C)CS(C)(=O)=O` [Flubendiamid, flubendiamide]: the Observed efficacy in the assay on Pyricularia oryzae (4 ppm, compound alone, day 7) was found to be 0%; with Pyricularia oryzae (63 ppm, compound alone, day 7), 15%; in the assay on Fusarium culmorum (63 ppm), 3%; in the assay on Leptosphaerium nodorum (63 ppm), 22%; with Colletotrichum truncatum (63 ppm), 0%. For the same compound, the inhibition of growth at 63 ppm was 0% in the assay on Alternaria solani (setting [1]) and 37% in the assay on Septoria tritici (63 ppm, compound alone, day 7).
Consider `CC1(C)CNC(=NN=C(/C=C/c2ccc(C(F)(F)F)cc2)/C=C/c2ccc(C(F)(F)F)cc2)NC1` [Hydramethylnon, hydramethylnon], for which, in the assay on Pyricularia oryzae (4 ppm, compound alone, day 7), the Observed efficacy was 5%. Also, the inhibition of growth at 1 ppm with Alternaria solani (setting [4]) worked out at 7%. In addition, in the assay with Septoria tritici, the inhibition of growth at 16 ppm stood at 0% and the inhibition of growth at 63 ppm was 4%.
For the compound `Cn1cc(C(=O)Nc2ccccc2-c2cc(F)c(F)c(F)c2)c(C(F)F)n1` [Ia, N-(3′,4′,5′-trifluorobiphenyl-2-yl)-3-difluoro-methyl-1-methyl-1H-pyrazole-4-carboxamide], the Observed efficacy with Pyricularia oryzae (0.004 ppm, compound alone, day 7) is 3%; in the assay on Alternaria solani it was 29%; in the assay on Septoria tritici, 29%.
In the case of `COC(=O)N(C(=O)N1CO[C@@]2(C(=O)OC)Cc3cc(Cl)ccc3C2=N1)c1ccc(OC(F)(F)F)cc1` [Indoxacarb, indoxacarb], the Observed efficacy turned out to be 0% in the assay on Pyricularia oryzae (1 ppm, compound alone, day 7); 0% in the assay on Alternaria solani (16 ppm, compound alone); 9% in the assay with Septoria tritici (16 ppm, compound alone, day 7); 19% with Septoria tritici (63 ppm, compound alone, day 7).
As for `CC(C)C1C2CCC1c1c(NC(=O)c3cn(C)nc3C(F)F)cccc12` (centres unmarked) [Isopyrazam, isopyrazam], the Observed efficacy in the assay with Pyricularia oryzae (setting [2]) is listed as 15%; in the assay with Alternaria solani, 2%; with Leptosphaerium nodorum (0.25 ppm), 13%; in the assay on Colletotrichum truncatum (0.25 ppm), 14%; with Septoria tritici, 58%.
For the compound `COP(N)(=O)SC` (centres unmarked) [Methamidophos, methamidophos], in the assay on Alternaria solani (setting [4]), the inhibition of growth at 1 ppm amounted to 8% and the inhibition of growth at 63 ppm came to 0%. The inhibition of growth at 4 ppm with Septoria tritici came out at 5%.
Regarding `Cc1nn(C)c(F)c1C(=O)Nc1ccccc1C(C)CC(C)C` (centres unmarked) [Penflufen, N-[2-(1,3-dimethylbutyl)-phenyl]-1,3-dimethyl-5-fluor-1H-pyrazole-4-carboxamide], the Observed efficacy was determined as 5% in the assay on Pyricularia oryzae (setting [3]), 0% in the assay with Alternaria solani and 44% with Septoria tritici.
For the compound `CCOP(=S)(OCC)SCSC(C)(C)C` [Terbufos, terbufos], the inhibition of growth at 16 ppm in the assay on Septoria tritici was 14%.
`CC1(C)C(C=C(Cl)Cl)C1C(=O)OC(C#N)c1cccc(Oc2ccccc2)c1` (stereo not drawn) [alpha-Cypermethrin, alpha-cypermethrin] registered an Observed efficacy in the assay on Pyricularia oryzae (63 ppm, compound alone, day 7) of 41%. Moreover, in the assay with Alternaria solani (setting [4]), the inhibition of growth at 63 ppm is 0%.
Take abamectin: the Observed efficacy in the assay on Alternaria solani (1 ppm, compound alone) is 2%.
